Laboratory results taken from US6548042B2, “Bis-phosphonate compounds” (priority 2000, dated 2003).
Read-outs that look alike come from different tables or passages of the source.

Columns and labels:
[1] = Biodistribution of i.v. administered radioiodinated compounds in balb/c mice; details: for Bone-seeking properties: mouse, in vivo; for Discomfort or toxicity after administration of samples: single bolus tail vein injection, 100 μl;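 on all read-outs here: healthy mice given radioiodinated bisphosphonic acids, with randomly chosen groups of three animals per time point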
Procedure: Mice. Samples of 100 μl containing 50,100, 400, 140 or 45 KBq of 31a, 34a, 46a, 67a or 72a, respectively, were injected into the tail veins as single bolus injections. […] At 0.5 h, 2 h, 5 h and 24 h postinjection times the animals were sacrificed; except in the case of the phosphate phosphonate derivative 31 were the animals were sacrificed 0.25 h, 2 h, 5 h and 24 h postinjection. Randomly selected groups of three animals were used at each time point. The whole animals were weighed and dissected. The excised organs, i.e. femur, skull, blood, heart, lung, liver, kidney, spleen, stomach, large intestine and small intestine, were weighed separately prior to counting.
Radioactivity measurements of the labelled compounds were carried out with a liquid scintillation counter (Beckman LS 6500, Beckman Instruments, USA) or with a Capintec CRC-7R radioisotope calibrator (Capintec, USA). The radioactivity level of the excised organs was measured with an automated gamma counter (LKB Wallac 1282, Turku, Finland).

OHS cells = details: 60 days; ^153Sm-EDTMP 800 MBq/kg, ^89Sr 20 MBq/kg, ifosfamide 150 mg/kg; cited from earlier work
MT-1 cells = details: repeated treatments (days 7 and 14); cited from earlier work
[2] = Swiss Webster mice, 20-25 g, 47 h; cited from earlier work
[3] = Sprague-Dawley rats, 220 g, 24 h; cited from earlier work
[4] = balb/c mice, 19-22 g, cited from earlier work

O=P(O)(O)C(Cc1ccccc1)P(=O)(O)O [2h, phenylethylidenebisphosphonic acid]
Uptake in femur ([1]; 2 h postinjection (peak), i.v.): 21±4 % ID/g | Uptake in femur ([1]; 24 h postinjection, i.v.): 15±5 % ID/g

O=P(O)(O)C(Cc1cccc([125I])c1)P(=O)(O)O [34a, m-[^125I and ^131I]-iodophenylethylidene-1,1-bisphosphonic Acid]
Uptake in femur ([1]; 0.5 h (30 min) postinjection, i.v.): 18.8±0.51 % ID/g | Activity in blood ([1]; 0.5 h postinjection, i.v.): 2.22±0.31 % ID/g | Uptake in kidneys ([1]; 0.5 h postinjection, i.v.): 8.23±6.39 % ID/g | Uptake in skull ([1]; 0.5 h postinjection, i.v.): 10.28±2.58 % ID/g | Femur to soft tissue ratio ([1]; 24 h, soft tissue with highest uptake): > 14 | Uptake in femur ([1]; 24 h postinjection, i.v.): 15.25±4.89 % ID/g | Uptake in kidneys ([1]; 24 h postinjection, i.v.): 1.06±0.10 % ID/g | Uptake in skull ([1]; 24 h postinjection, i.v.): 7.13±2.73 % ID/g | Bone-seeking properties [1]: potent bone-seekers | Discomfort or toxicity after administration of samples [1]: No sign of discomfort or toxicity was observed

O=P(O)(O)C(NCCc1cccc([131I])c1)P(=O)(O)O [67a, N-(m-[^131I]-iodophenylethyl)aminomethylene-bisphosphonic acid]
Uptake in femur ([1]; 24 h postinjection, i.v.): 1.39±0.43 % ID/g | Uptake in liver ([1]; 24 h postinjection, i.v.): 5.57±0.79 % ID/g | Uptake in skull ([1]; 24 h postinjection, i.v.): 0.91±0.08 % ID/g | Uptake in spleen ([1]; 24 h postinjection, i.v.): 2.49±0.37 % ID/g | Bone-seeking properties [1]: lack bone seeking properties | Discomfort or toxicity after administration of samples [1]: No sign of discomfort or toxicity was observed

O=P(O)(O)C(CCc1cccc([131I])c1)P(=O)(O)O [72a, 3-(m-iodo-[^131I and ^125I]-phenyl)propylidene-1,1-bisphosphonic acid]
Uptake in femur ([1]; 24 h postinjection, i.v.): 8.84±0.97 % ID/g | Uptake in kidneys ([1]; 24 h postinjection, i.v.): 0.85±0.08 % ID/g | Uptake in liver ([1]; 24 h postinjection, i.v.): 0.35±0.06 % ID/g | Uptake in skull ([1]; 24 h postinjection, i.v.): 10.36±4.26 % ID/g | Bone-seeking properties [1]: potent bone-seekers | Discomfort or toxicity after administration of samples [1]: No sign of discomfort or toxicity was observed

[89Sr] [^89Sr]
Survival rate / disease-free rats (OHS cells): 20% | Surviving / disease-free rats of rats treated (OHS cells): 2 of 10

N.N.[Cl][Pt][Cl] [cisplatin]
Effect on the metastatic growth (MT-1 cells): nor did they have any significant effect on the metastatic growth | Survival after repeated treatments (MT-1 cells): have not improved survival

O=P(O)(O)C(O)(c1cccc(I)c1)P(=O)(O)O [compound 2]
Ratio between uptake in femur and stomach [2]: 1.7 (femur/stomach, Swiss Webster | Uptake in femur expressed as % gram dose per gram tissue [2]: 299 (Swiss Webster mice, 20-25 g, 47 h) % gram dose per gram tissue | Uptake in stomach [2]: 7.65 ± 0.02 % ID/g | Uptake in the thyroid [2]: 0.414 ± 0.147 % injected dose/organ

O=P(O)(O)C(c1ccc(O)c(I)c1)P(=O)(O)O [compound 3]
Ratio between uptake in femur and kidney [3]: 1.5 (femur/kidney, Sprague-Dawley | Uptake in femur expressed as % gram dose per gram tissue [3]: 438 (Sprague-Dawley rats, 220 g, 24 h) % gram dose per gram tissue | Uptake in the thyroid [3]: 3829 (% ID/g,

O=C(NCCC(O)(P(=O)(O)O)P(=O)(O)O)c1cccc(I)c1 [compound 4]
Uptake in femur expressed as % gram dose per gram tissue ([4]; 2 h): 702 (balb/c mice, 19-22 g, 2 h) % gram dose per gram tissue | Ratio between uptake in femur and spleen ([4]; 24 h): 3.2 (femur/spleen, balb/c mice, | Uptake in stomach ([4]; 24 h): 0.93 ± 0.95 % ID/g | Uptake in the thyroid ([4]; 24 h): 0.45 ± 0.36 % injected dose/organ

COc1cccc2c1C(=O)c1c(O)c3c(c(O)c1C2=O)C[C@@](O)(C(=O)CO)C[C@@H]3O[C@H]1C[C@H](N)[C@H](O)[C@H](C)O1 [doxorubicin]
Effect on the metastatic growth (MT-1 cells): nor did they have any significant effect on the metastatic growth | Survival after repeated treatments (MT-1 cells): have not improved survival

O=P1(NCCCl)OCCCN1CCCl (stereo not drawn) [ifosfamide]
Survival rate / disease-free rats (OHS cells): 20% | Surviving / disease-free rats of rats treated (OHS cells): 3 of 15

^153Sm-EDTMP
Survival rate / disease-free rats (OHS cells): 62% | Surviving / disease-free rats of rats treated (OHS cells): 8/13
